Measurements published in patent US20170050957A1, “4-AMINO-6-(HETEROCYCLIC)PICOLINATES AND 6-AMINO-2-(HETEROCYCLIC)PYRIMIDINE-4-CARBOXYLATES AND THEIR USE AS HERBICIDES” (Dow AgroSciences LLC, priority 2013, published 2017).

Legend:
[1] = system: Wheat and Barley and test plant species; experiment: Post-emergent Test III, herbicidal activity in wheat and barley (Table 17; visual injury, GR20/GR50/GR80/GR90); format: in vivo; conditions: 21 d; for Visual Growth Reduction (%) 21 Days After Application, CIRAR / Visual Growth Reduction (%) 21 Days After Application, GALAP / Visual Growth Reduction (%) 21 Days After Application, HORVS / Visual Growth Reduction (%) 21 Days After Application, KCHSC / Visual Growth Reduction (%) 21 Days After Application, LAMPU / Visual Growth Reduction (%) 21 Days After Application, MATCH / Visual Growth Reduction (%) 21 Days After Application, PAPRH / Visual Growth Reduction (%) 21 Days After Application, SASKR / Visual Growth Reduction (%) 21 Days After Application, SINAR / Visual Growth Reduction (%) 21 Days After Application, TRZAS / Visual Growth Reduction (%) 21 Days After Application, VERPE / Visual Growth Reduction (%) 21 Days After Application, VIOTR: post-emergent
Procedure: Post-emergent Test III. Seeds of the desired test plant species were planted in Sun Gro MetroMix® 306 planting mixture, which typically has a pH of 6.0 to 6.8 and an organic matter content of about 30 percent, in plastic pots with a surface area of 103.2 square centimeters (cm^2). When required to ensure good germination and healthy plants, a fungicide treatment and/or other chemical or physical treatment was applied. The plants were grown for 7-36 days (d) in a greenhouse with an approximate 14 hour (h) photoperiod which was maintained at about 18° C. during the day and 17° C. during the night. Nutrients and water were added on a regular basis and supplemental lighting was provided with overhead metal halide 1000-Watt lamps as necessary. The plants were employed for testing when they reached the second or third true leaf stage.
A weighed amount, determined by the highest rate to be tested, of each test compound was placed in a 25 mL glass vial and was dissolved in 4 mL of a 97:3 v/v mixture of acetone and DMSO to obtain concentrated stock solutions. […] The concentrated stock solutions obtained were diluted with 20 mL of an aqueous mixture containing acetone, water, isopropyl alcohol, DMSO, Agri-Dex crop oil concentrate, and X-77 surfactant in a 48:39:10:1.5:1.5:0.02 v/v ratio to obtain spray solutions containing the highest application rates. Additional application rates were obtained by serial dilution of 12 mL of the high rate solution into a solution containing 2 mL of 97:3 v/v mixture of acetone and DMSO and 10 mL of an aqueous mixture containing acetone, water, isopropyl alcohol, DMSO, Agri-Dex crop oil concentrate, and X-77 surfactant in a 48:39:10:1.5:1.5:0.02 v/v ratio to obtain 1/2×, 1/4×, 1/8× and 1/16× rates of the high rate. Compound requirements are based upon a 12 mL application volume at a rate of 187 liters per hectare (L/ha). Formulated compounds were applied to the plant material with an overhead Mandel track sprayer equipped with 8002E nozzles calibrated to deliver 187 L/ha over an application area of 0.503 square meters at a spray height of 18 inches (43 cm) above the average plant canopy height. Control plants were sprayed in the same manner with the solvent blank.
The treated plants and control plants were placed in a greenhouse as described above and watered by subirrigation to prevent wash-off of the test compounds. After 21 d, the condition of the test plants as compared with that of the untreated plants was determined visually and scored on a scale of 0 to 100 percent where 0 corresponds to no injury and 100 corresponds to complete kill. By applying the well-accepted probit analysis as described by J. Berkson in Journal of the American Statistical […], 48, 565 (1953) and by D. Finney in “Probit Analysis” Cambridge University Press (1952), the above data can be used to calculate GR20, GR50, GR80 and GR90 values, which are defined as growth reduction factors that correspond to the effective dose of herbicide required to kill or control 20 percent, 50 percent, 80 percent or 90 percent, respectively, of a target plant.

[2] = system: undesirable vegetation; experiment: Herbicidal activity, comparison X is CF with X is CH; format: in vivo; conditions: 1.08 and 1.09 vs 1.21 and 1.22; 1.15 and 1.16 vs 1.23 and 1.24; A is A15

COC(=O)c1nc(-c2ccc3cc[nH]c3c2F)c(F)c(N)c1Cl [Compound 1.15, Methyl 4-amino-3-chloro-5-fluoro-6-(7-fluoro-1H-indol-6-yl)picolinate]
Visual Growth Reduction (%) 21 Days After Application, CIRAR ([1]; CIRAR, 17.5 g ai/ha): F (30-44)
Visual Growth Reduction (%) 21 Days After Application, CIRAR ([1]; CIRAR, 35 g ai/ha): D (60-74)
Visual Growth Reduction (%) 21 Days After Application, CIRAR ([1]; CIRAR, 70 g ai/ha): C (75-84)
GR50, CIRAR ([1]; CIRAR, dose for 50 percent growth reduction, probit analysis): 30 g ai/ha
GR80, CIRAR ([1]; CIRAR, dose for 80 percent growth reduction, probit analysis): 70 g ai/ha
GR90, CIRAR ([1]; CIRAR, dose for 90 percent growth reduction, probit analysis): 109 g ai/ha
Visual Growth Reduction (%) 21 Days After Application, GALAP ([1]; GALAP, 17.5 g ai/ha): D (60-74)
Visual Growth Reduction (%) 21 Days After Application, GALAP ([1]; GALAP, 35 g ai/ha): B (85-94)
Visual Growth Reduction (%) 21 Days After Application, GALAP ([1]; GALAP, 70 g ai/ha): A (95-100)
GR50, GALAP ([1]; GALAP, dose for 50 percent growth reduction, probit analysis): 9 g ai/ha
GR80, GALAP ([1]; GALAP, dose for 80 percent growth reduction, probit analysis): 23 g ai/ha
GR90, GALAP ([1]; GALAP, dose for 90 percent growth reduction, probit analysis): 37 g ai/ha
Visual Growth Reduction (%) 21 Days After Application, HORVS ([1]; HORVS, 17.5 g ai/ha): F (30-44)
Visual Growth Reduction (%) 21 Days After Application, HORVS ([1]; HORVS, 35 g ai/ha): E (45-59)
Visual Growth Reduction (%) 21 Days After Application, HORVS ([1]; HORVS, 70 g ai/ha): E (45-59)
GR20, HORVS ([1]; HORVS, dose for 20 percent growth reduction, probit analysis): 8 g ai/ha
Visual Growth Reduction (%) 21 Days After Application, KCHSC ([1]; KCHSC, 17.5 g ai/ha): D (60-74)
Visual Growth Reduction (%) 21 Days After Application, KCHSC ([1]; KCHSC, 35 g ai/ha): B (85-94)
Visual Growth Reduction (%) 21 Days After Application, KCHSC ([1]; KCHSC, 70 g ai/ha): B (85-94)
GR50, KCHSC ([1]; KCHSC, dose for 50 percent growth reduction, probit analysis): 6 g ai/ha
GR80, KCHSC ([1]; KCHSC, dose for 80 percent growth reduction, probit analysis): 28 g ai/ha
GR90, KCHSC ([1]; KCHSC, dose for 90 percent growth reduction, probit analysis): 67 g ai/ha
Visual Growth Reduction (%) 21 Days After Application, LAMPU ([1]; LAMPU, 17.5 g ai/ha): A (95-100)
Visual Growth Reduction (%) 21 Days After Application, LAMPU ([1]; LAMPU, 35 g ai/ha): A (95-100)
Visual Growth Reduction (%) 21 Days After Application, LAMPU ([1]; LAMPU, 70 g ai/ha): A (95-100)
GR50, LAMPU ([1]; LAMPU, dose for 50 percent growth reduction, probit analysis): 0.10 g ai/ha
GR80, LAMPU ([1]; LAMPU, dose for 80 percent growth reduction, probit analysis): 1 g ai/ha
GR90, LAMPU ([1]; LAMPU, dose for 90 percent growth reduction, probit analysis): 2 g ai/ha
Visual Growth Reduction (%) 21 Days After Application, MATCH ([1]; MATCH, 17.5 g ai/ha): F (30-44)
Visual Growth Reduction (%) 21 Days After Application, MATCH ([1]; MATCH, 35 g ai/ha): E (45-59)
Visual Growth Reduction (%) 21 Days After Application, MATCH ([1]; MATCH, 70 g ai/ha): D (60-74)
GR50, MATCH ([1]; MATCH, dose for 50 percent growth reduction, probit analysis): 45 g ai/ha
GR80, MATCH ([1]; MATCH, dose for 80 percent growth reduction, probit analysis): >140 g ai/ha
GR90, MATCH ([1]; MATCH, dose for 90 percent growth reduction, probit analysis): >140 g ai/ha
Visual Growth Reduction (%) 21 Days After Application, PAPRH ([1]; PAPRH, 17.5 g ai/ha): A (95-100)
Visual Growth Reduction (%) 21 Days After Application, PAPRH ([1]; PAPRH, 35 g ai/ha): A (95-100)
Visual Growth Reduction (%) 21 Days After Application, PAPRH ([1]; PAPRH, 70 g ai/ha): A (95-100)
GR50, PAPRH ([1]; PAPRH, dose for 50 percent growth reduction, probit analysis): 0.06 g ai/ha
GR80, PAPRH ([1]; PAPRH, dose for 80 percent growth reduction, probit analysis): 1 g ai/ha
GR90, PAPRH ([1]; PAPRH, dose for 90 percent growth reduction, probit analysis): 2 g ai/ha
Visual Growth Reduction (%) 21 Days After Application, SASKR ([1]; SASKR, 17.5 g ai/ha): C (75-84)
Visual Growth Reduction (%) 21 Days After Application, SASKR ([1]; SASKR, 35 g ai/ha): C (75-84)
Visual Growth Reduction (%) 21 Days After Application, SASKR ([1]; SASKR, 70 g ai/ha): B (85-94)
GR50, SASKR ([1]; SASKR, dose for 50 percent growth reduction, probit analysis): 7 g ai/ha
GR80, SASKR ([1]; SASKR, dose for 80 percent growth reduction, probit analysis): 30 g ai/ha
GR90, SASKR ([1]; SASKR, dose for 90 percent growth reduction, probit analysis): 95 g ai/ha
Visual Growth Reduction (%) 21 Days After Application, SINAR ([1]; SINAR, 17.5 g ai/ha): A (95-100)
Visual Growth Reduction (%) 21 Days After Application, SINAR ([1]; SINAR, 35 g ai/ha): A (95-100)
Visual Growth Reduction (%) 21 Days After Application, SINAR ([1]; SINAR, 70 g ai/ha): A (95-100)
GR50, SINAR ([1]; SINAR, dose for 50 percent growth reduction, probit analysis): 4 g ai/ha
GR80, SINAR ([1]; SINAR, dose for 80 percent growth reduction, probit analysis): 8 g ai/ha
GR90, SINAR ([1]; SINAR, dose for 90 percent growth reduction, probit analysis): 12 g ai/ha
Visual Growth Reduction (%) 21 Days After Application, TRZAS ([1]; TRZAS, 17.5 g ai/ha): F (30-44)
Visual Growth Reduction (%) 21 Days After Application, TRZAS ([1]; TRZAS, 35 g ai/ha): E (45-59)
Visual Growth Reduction (%) 21 Days After Application, TRZAS ([1]; TRZAS, 70 g ai/ha): D (60-74)
GR20, TRZAS ([1]; TRZAS, dose for 20 percent growth reduction, probit analysis): 13 g ai/ha
Visual Growth Reduction (%) 21 Days After Application, VERPE ([1]; VERPE, 17.5 g ai/ha): A (95-100)
Visual Growth Reduction (%) 21 Days After Application, VERPE ([1]; VERPE, 35 g ai/ha): A (95-100)
Visual Growth Reduction (%) 21 Days After Application, VERPE ([1]; VERPE, 70 g ai/ha): A (95-100)
GR50, VERPE ([1]; VERPE, dose for 50 percent growth reduction, probit analysis): 0.28 g ai/ha
GR80, VERPE ([1]; VERPE, dose for 80 percent growth reduction, probit analysis): 2 g ai/ha
GR90, VERPE ([1]; VERPE, dose for 90 percent growth reduction, probit analysis): 6 g ai/ha
Visual Growth Reduction (%) 21 Days After Application, VIOTR ([1]; VIOTR, 17.5 g ai/ha): E (45-59)
Visual Growth Reduction (%) 21 Days After Application, VIOTR ([1]; VIOTR, 35 g ai/ha): D (60-74)
Visual Growth Reduction (%) 21 Days After Application, VIOTR ([1]; VIOTR, 70 g ai/ha): C (75-84)
GR50, VIOTR ([1]; VIOTR, dose for 50 percent growth reduction, probit analysis): 22 g ai/ha
GR80, VIOTR ([1]; VIOTR, dose for 80 percent growth reduction, probit analysis): 63 g ai/ha
GR90, VIOTR ([1]; VIOTR, dose for 90 percent growth reduction, probit analysis): 111 g ai/ha
activity when X is CF compared with X is CH [2]: significant increase in activity
